Data taken from EP1134289A1, “METHOD FOR SCREENING CD14 AGONIST OR ANTAGONIST” (Takeda Chemical Industries, Ltd., priority 1998, dated 2000).

Test system: CD14 expression
Assay: Induction of CD14 expression in THP-1 cells (FITC-labeled anti-CD14 antibody, flow cytometry)
Assay type: cell-based, human
Details: VD3 about 100 nM, 3 days, 10,000 cells, 40 where no VD3 was added
Protocol: Human monocytic THP-1 cells (purchased from Dainippon Pharmaceutical Co., Ltd.) were used as cells. As a culture medium, RPMI medium 1640 with L-glutamine (RPMI; GIBCO Co.), to which inactivated fetal calf serum (GIBCO Co.) at a concentration of 10% (v/v) and penicillin-streptomycin involving penicillin G sodium and streptomycin sulfate at a concentration of 100 U/ml and 100 µg/ml respectively, were added. For induction of CD14 expression, the cells were suspended in the medium at a content of about 3 × 10^5 cells/ml, to which 1,25-dihydroxyvitamin D3 (VD3; Roussel-UCLAF S.A.) was added at a final concentration of about 100 nM. The cells were incubated in the presence of 5% CO2 in a CO2 incubator MODEL 6200-03 (National Appliance Company) at 37°C for 3 days. The cultured cells were suspended into PBS at 10^6 cells/ml, to which FITC-labeled anti-human CD14 monoclonal antibody clone. UCHM1 (Ancell Co.) was added at a concentration of 1.6 µg/ml. The mixture was incubated at 4°C for 1 hour. The cells were washed 3 times with PBS by centrifugation (1,000 rpm, 3 minutes, 20°C), suspended into 1,000 µl of PBS, and filtered through a tube with a filter (FALCON2235 (Becton Dickinson Co.)). For the resulting cell suspension, the amount of the FITC-labeled anti-CD14 antibody bound to 10,000 cells was determined using a flow cytometer Cyto ACE-300 (JASCO Coporation). […]

Which “mean fluorescence intensity (MFI) of bound FITC-labeled anti-CD14 antibody” value does the source give for `C=C1/C(=C\C=C2/CCC[C@]3(C)[C@@H]([C@H](C)CCCC(C)(C)O)CC[C@@H]23)C[C@@H](O)C[C@@H]1O` [VD3, 1,25-dihydroxyvitamin D3] here?
The value was 114.9.
